The text below walks through data of patent US6506766B1 (Abbott Laboratories, priority 1998, dated 2003).

The target in experiment [1] is T1, human glucocorticoid receptor-α [GRX] isoform (Homo sapiens, UniProt P04150).
T1 construct: host or cells: insect SF21 cells (baculovirus)
T1 sequence (P04150 1-777): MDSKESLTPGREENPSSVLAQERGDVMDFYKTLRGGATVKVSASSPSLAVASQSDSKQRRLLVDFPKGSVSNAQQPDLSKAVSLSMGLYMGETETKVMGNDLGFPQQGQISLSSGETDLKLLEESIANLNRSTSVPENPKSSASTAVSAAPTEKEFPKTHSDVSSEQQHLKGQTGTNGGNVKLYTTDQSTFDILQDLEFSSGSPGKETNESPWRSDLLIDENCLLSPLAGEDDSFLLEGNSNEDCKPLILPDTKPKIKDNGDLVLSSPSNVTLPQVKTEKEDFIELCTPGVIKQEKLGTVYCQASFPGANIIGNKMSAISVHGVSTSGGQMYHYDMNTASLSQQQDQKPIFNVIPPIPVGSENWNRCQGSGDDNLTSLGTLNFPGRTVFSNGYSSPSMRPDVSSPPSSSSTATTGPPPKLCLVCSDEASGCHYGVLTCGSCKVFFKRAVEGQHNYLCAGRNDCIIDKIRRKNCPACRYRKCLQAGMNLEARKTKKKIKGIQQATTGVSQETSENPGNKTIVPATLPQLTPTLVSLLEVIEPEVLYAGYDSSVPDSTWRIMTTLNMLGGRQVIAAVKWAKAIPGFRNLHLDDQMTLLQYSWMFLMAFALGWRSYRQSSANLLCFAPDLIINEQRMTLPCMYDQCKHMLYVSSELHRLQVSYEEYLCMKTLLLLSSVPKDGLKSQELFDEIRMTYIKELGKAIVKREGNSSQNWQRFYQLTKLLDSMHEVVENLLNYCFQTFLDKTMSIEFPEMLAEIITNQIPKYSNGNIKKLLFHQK
Put plainly: Radioligand binding with human glucocorticoid receptor cytosol ([3H]-dexamethasone competition).
Description: Briefly, cytosol preparations of human glucocorticoid receptor-α [GRX] isoform and human progesterone receptor-A [PRA] isoform were obtained from Ligand Pharmaceuticals (San Diego, Calif.). Both receptor cDNAs were cloned into baculovirus expression vectors and expressed in insect SF21 cells. [^3H]-dexamethasone (Dex, specific activity 82-86 Ci/mmole) and [^3H]-progesterone (Prog, specific activity 97-102 Ci/mmol) were purchased from Amersham Life Sciences (Arlington Heights, Ill.). Glass fiber type C multiscreen MAFC NOB plates were from Millipore (Burlington, Mass.). Hydroxyapatide Bio-Gel HTP gel was from Bio-Rad Laboratories (Hercules, Calif.). Tris(hydroxymethyl)aminomethane (Tris), ethylenediaminetetraacetic acid (EDTA), glycerol, dithiothreitol (DTT) and sodium moylybdate were obtained from Sigma Chemicals (St. Louis, Mo.). Microscint-20 scintillation fluid was from Packard Instrument (Meriden, Conn.).
Stock solutions (32 mM) of compounds were prepared in dimethylsulfoxide (DMSO), and 50× solutions of test compounds were prepared from the 32 mM solution with a 50:50 mixture of DMSO/ethanol. The 50× solution was then diluted with binding buffer that contained 10 mM Tri-HCl, 1.5 mM EDTA, 10% glycerol, 1 mM DTT, 20 mM sodium molybdate, pH 7.5 @4° C. 1% DMSO/ethanol was present in the binding assay.
For GR binding assays, [^3H]-Dex (˜35,000 dpm (˜0.9 nM)), GRX cytosol (˜35 μg protein), test compounds and binding buffer were mixed in a total volume of 200 μL and incubated at 4° C. overnight in a plate shaker. Specific binding was defined as the difference between binding of [^3H]Dex in the absence and in the presence of 1 μM unlabelled Dex.
After an overnight incubation, 50 μL of hydroxyapatite (25% weight/volume) slurry were added to each well and plates were incubated for 10 min at 0° C. in a plate shaker. Plates were suctioned with a Millipore vacuum manifold and each well was rinsed with 300 μL of ice-cold binding buffer. A 250 μL aliquot of Packard Microscint-20 was added to each well and the wells were shaken at room temperature for 20 minutes. The amount of radioactivity was determined with a Packard TopCount plate reader.
The Ki of test compounds was determined using the Cheng-Prusoff equation Ki=IC50/(1+[L*]/[KL]) where L* is the concentration of radioligand and KL is the dissociation constant of the radioligand determined from saturation analysis.

Experiment [2] deals with T2, human progesterone receptor-A [PRA] isoform (Homo sapiens, UniProt P06401).
T2 construct: host or cells: insect SF21 cells (baculovirus)
T2 sequence (P06401 1-769 isoform P06401-2): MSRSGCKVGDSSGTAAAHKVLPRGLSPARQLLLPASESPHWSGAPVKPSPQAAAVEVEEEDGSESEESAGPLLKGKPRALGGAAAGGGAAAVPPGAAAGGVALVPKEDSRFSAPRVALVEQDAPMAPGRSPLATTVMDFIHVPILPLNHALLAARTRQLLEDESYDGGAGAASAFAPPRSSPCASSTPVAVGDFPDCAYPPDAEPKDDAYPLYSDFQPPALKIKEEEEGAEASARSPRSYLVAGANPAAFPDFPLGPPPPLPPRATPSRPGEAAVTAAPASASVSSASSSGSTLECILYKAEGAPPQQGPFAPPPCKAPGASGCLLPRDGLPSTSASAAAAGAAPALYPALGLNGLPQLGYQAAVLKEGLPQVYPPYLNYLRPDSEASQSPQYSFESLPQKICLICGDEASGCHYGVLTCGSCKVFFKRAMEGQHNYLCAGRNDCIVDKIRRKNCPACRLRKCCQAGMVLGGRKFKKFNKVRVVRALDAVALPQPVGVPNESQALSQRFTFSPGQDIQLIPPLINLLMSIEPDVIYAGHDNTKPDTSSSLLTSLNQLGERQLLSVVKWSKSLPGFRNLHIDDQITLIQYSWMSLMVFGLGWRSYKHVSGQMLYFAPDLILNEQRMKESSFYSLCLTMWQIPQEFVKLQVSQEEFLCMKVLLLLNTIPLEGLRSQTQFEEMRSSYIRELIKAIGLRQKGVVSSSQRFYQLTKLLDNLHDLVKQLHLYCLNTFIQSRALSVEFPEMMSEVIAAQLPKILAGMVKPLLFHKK
Description: Radioligand binding with human progesterone receptor cytosol ([3H]-progesterone competition). To be noted: PRA cytosol expressed in insect SF21 cells, [3H]Prog ~0.8 nM, 4° C. overnight; Ki by Cheng-Prusoff, KL ~4.5 nM; read-out: Ki (nM) PR.

Where [3] appears, read: GRX cytosol expressed in insect SF21 cells, [3H]-Dex ~0.9 nM, 4° C. overnight, Ki by Cheng-Prusoff, KL ~[…], read-out: Ki (nM) GR.

Like-named read-outs stand apart in the source and are kept apart here.

A word on the Ki: it is a measure of affinity in units of concentration, obtained from inhibition or displacement. As for `CNc1cccc2c1-c1ccc3c(c1C(c1cc(Cl)cc(Cl)c1)O2)C(C)=CC(C)(C)N3` (stereo not drawn) [Example 73, 5-(3,5-Dichlorophenyl)-2,5-dihydro-2,2,4,N-tetramethyl-1H[1]benzopyrano[3,4-f]quinolin-10-amine], the Ki is 10.3 nM in experiment [1] (setting [3]) and 4500 nM in experiment [2].

As to `CC1=CC(C)(C)Nc2ccc3c(c21)C(c1ccccc1)Oc1ccc(O)c(Cl)c1-3` (stereo not drawn) [Example 217, 10-Chloro-9-hydroxy-5-phenyl-2,2,4-trimethyl-1H-2,5-dihydro-[1]benzopyrano[3,4-f]quinoline], the inhibition constant Ki is 1 nM in experiment [1] (setting [3]) and 65.1 nM in experiment [2].

On to `COc1cccc2c1-c1ccc3c(c1C(CCOC(=O)NCc1ccccc1)O2)C(C)=CC(C)(C)N3` (stereo not drawn) [Example 200, 2,5-Dihydro-10-methoxy-5-(2-(N-benzylcarbonyloxy)ethyl)-2,2,4-trimethyl-1H-[1]benzopyrano[3,4-f]quinoline], for which the Ki in experiment [1] (setting [3]) was 45 nM; in experiment [2] it was ≥ 10000 nM.

Regarding `COc1ccc2c(c1OC)-c1ccc3c(c1C(C1C=CCCC1)O2)C(C)=CC(C)(C)N3` (stereo not drawn) [Example 131, 5-(2-Cyclohexen-1-yl)-2,5-dihydro-9,10-dimethoxy-2,2,4-trimethyl-1H-[1]benzopyrano[3,4-f]quinoline], the results for the Ki in experiment [1] (setting [3]) and in experiment [2] were 7.71 nM and 996 nM, respectively.

`C=CCC1Oc2ccc(OC)c(OC)c2-c2ccc3c(c21)C(C)=CC(C)(C)N3` (stereo not drawn) [Example 130, 2,5-Dihydro-9,10-dimethoxy-2,2,4-trimethyl-5-(2-propenyl)-1H-[1]benzopyrano[3,4-f]quinoline]: the inhibition constant Ki was determined as 11.9 nM in experiment [1] (setting [3]) and 1050 nM in experiment [2].

For the compound `COc1c(O)ccc2c1-c1ccc3c(c1[C@H]([C@H]1C=C(C)CCC1)O2)C(C)=CC(C)(C)N3` (racemic) [Example 243, (+/−)(5S,3′R)2,5-Dihydro-9-hydroxy-10-methoxy-2,2,4-trimethyl-5-(1-methylcyclohexen-3-yl)-1H-[1]benzopyrano[3,4-f]quinoline], the inhibition constant Ki worked out at 1.6 nM in experiment [1] (setting [3]) and 21.2 nM in experiment [2].

Consider `CC1=CC(C)(C)Nc2ccc3c(c21)C(c1ccccc1)Oc1cccc(CO)c1-3` (stereo not drawn) [Example 336, 2,5-Dihydro-10-(hydroxymethyl)-5-phenyl-2,2,4-trimethyl-1H-[1]benzopyrano[3,4-f]quinoline], for which the Ki in experiment [1] (setting [3]) was found to be 9.5 nM; in experiment [2] it was 1560 nM.

Turning to `COc1cccc2c1-c1ccc3c(c1C(CCCN1C(=O)c4ccccc4C1=O)O2)C(C)=CC(C)(C)N3` (stereo not drawn) [Example 176], the Ki in experiment [1] (setting [3]) is 88 nM; in experiment [2], > 10000 nM.

Regarding `COc1c(O)ccc2c1-c1ccc3c(c1C(c1ccccc1)O2)C(C)=CC(C)(C)N3` (stereo not drawn) [Example 248, 2,5-Dihydro-9-hydroxy-10-methoxy-2,2,4-trimethyl-5-phenyl-1H-[1]benzopyrano[3,4-f]quinoline], the values for the Ki in experiment [1] (setting [3]) and in experiment [2] were 1 nM and 870 nM, respectively.

For `COc1cccc2c1-c1ccc3c(c1C(=Cc1ccccc1F)O2)C(C)=CC(C)(C)N3` [Example 126], the Ki in experiment [1] (setting [3]) was found to be 2.9 nM; in experiment [2] it was 1410 nM.

Consider `COc1c(O)ccc2c1-c1ccc3c(c1C(c1cc(C(F)(F)F)cc(C(F)(F)F)c1)O2)C(C)=CC(C)(C)N3` (stereo not drawn) [Example 257, 2,5-Dihydro-9-hydroxy-10-methoxy-2,2,4-trimethyl-5-(3-5-bistrifluoromethylphenyl)-1H-[1]benzopyrano[3,4-f]quinoline], for which the inhibitory constant (Ki) in experiment [1] (setting [3]) was 10 nM; in experiment [2] it was 1620 nM.

For `COc1c(O)ccc2c1-c1ccc3c(c1C(c1cccc(OCSC)c1)O2)C(C)=CC(C)(C)N3` (stereo not drawn) [Example 400, 2,5-Dihydro-9-hydroxy-10-methoxy-2,2,4-trimethyl-5-(3-(methylthiomethoxy)phenyl)-1H-[1]benzopyrano[3,4-f]quinoline], the results for the Ki in experiment [1] (setting [3]) and in experiment [2] were 3.5 nM and 5960 nM, respectively.

Consider `COc1cccc2c1-c1ccc3c(c1C(c1ccccc1)O2)C(C)=[N+]([O-])C(C)(C)N3` (stereo not drawn) [Example 357, 2,5-Dihydro-10-methoxy-2,2,4-trimethyl-3-oxide-5-phenyl-1H-[1]benzopyrano[3,4-f]quinazoline], for which the Ki in experiment [1] (setting [3]) is 59.8 nM; in experiment [2], ≥ 10000 nM.

Regarding `COc1cccc2c1-c1ccc3c(c1C(C1C=CC(=O)O1)O2)C(C)=CC(C)(C)N3` (stereo not drawn) [Example 67, 5-(2,5-Dihydro-10-methoxy-2,2,4-trimethyl-1H-[1]benzopyrano[3,4-f]quinolin-5-yl)2(5H)-furanone], the inhibitory constant (Ki) is 21.7 nM in experiment [1] (setting [3]) and ≥ 10000 nM in experiment [2].

With `COc1cccc2c1-c1ccc3c(c1C(c1cc(C)cc(N4CCCC4)c1)O2)C(C)=CC(C)(C)N3` (stereo not drawn) [Example 113, 2,5-Dihydro-10-methoxy-2,2,4-trimethyl-5-[3-methyl-5-(1H-pyrrolidin-1-yl)phenyl]1H-[1]benzopyrano[3,4-f]quinoline], the Ki in experiment [1] (setting [3]) was 9.7 nM; in experiment [2], ≥ 10000 nM.

As for `COc1c(O)ccc2c1-c1ccc3c(c1C(CC(C)C)O2)C(C)=CC(C)(C)N3` (stereo not drawn) [Example 259, 2,5-Dihydro-9-hydroxy-10-methoxy-2,2,4-trimethyl-5-(2-methylpropyl)-1H-[1]benzopyrano[3,4-f]quinoline], the figures for the Ki in experiment [1] (setting [3]) and in experiment [2] were 1.2 nM and 938 nM, respectively.

`C=C(COC(C)=O)CC1Oc2cccc(OC)c2-c2ccc3c(c21)C(C)=CC(C)(C)N3` (stereo not drawn) [Example 49]: the Ki was 13 nM in experiment [1] (setting [3]) and ≥ 10000 nM in experiment [2].

As to `C=C1CCCCC1C1Oc2cccc(OC)c2-c2ccc3c(c21)C(C)=CC(C)(C)N3` (mixture of isomers) [Example 141, 2,5-Dihydro-10-methoxy-5-(1-methylene-2-cyclohexyl)-2,2,4-trimethyl-1H-[1]benzopyrano[3,4-f]quinoline], the Ki in experiment [1] (Ki (nM) GR) was 10 nM; in experiment [2], ≥ 10000 nM.

As for `CC1=CC(C)(C)Nc2ccc3c(c21)C(c1cc(Cl)cc(Cl)c1)Oc1cccc(O)c1-3` (stereo not drawn) [Example 80, 5-(3,5-Dichlorophenyl)-2,5-dihydro-2,2,4-trimethyl-1H-[1]benzopyrano[3,4-f]quinolin-10-ol], the inhibitory constant (Ki) in experiment [1] (setting [3]) is 168 nM; in experiment [2], ≥ 10000 nM.

With `COc1cccc2c1-c1ccc3c(c1C(c1cccc(O)c1)O2)C(C)=CC(C)(C)N3` (stereo not drawn) [Example 13, 3-(2,5-Dihydro-10-methoxy-2,2,4-trimethyl-1H-[1]benzopyrano[3,4-f]quinolin-5-yl)phenol], the Ki in experiment [1] (setting [3]) was 11.1 nM; in experiment [2], ≥ 10000 nM.

For the compound `COC(=O)/C=C/C1Oc2cccc(OC)c2-c2ccc3c(c21)C(C)=CC(C)(C)N3` (stereo not drawn) [Example 179, (E) 2,5-Dihydro-10-methoxy-5-(2-carbomethoxy-1-ethenyl)-2,2,4-trimethyl-1H-[1]benzopyrano[3,4-f]quinoline], the values for the Ki in experiment [1] (setting [3]) and in experiment [2] were 9.5 nM and 2750 nM, respectively.

`COc1c(O)ccc2c1-c1ccc3c(c1[C@@H]([C@H]1C=CCC1)O2)C(C)=CC(C)(C)N3` [Example 287]: the Ki in experiment [1] (setting [3]) stood at 346 nM; in experiment [2], 3500 nM.

Consider `CC1=CC(C)(C)Nc2ccc3c(c21)C(C(C)C)Oc1ccc(O)c(Cl)c1-3` (stereo not drawn) [Example 405, 2,5-Dihydro-9-hydroxy-10-chloro-2,2,4-trimethyl-5-isopropyl-1H-[1]benzopyrano[3,4-f]quinoline], for which the inhibitory constant (Ki) in experiment [1] (setting [3]) is 1.1 nM; in experiment [2], 75.1 nM.

For `C=CCC1Oc2c(C(C)=O)ccc(OC)c2-c2ccc3c(c21)C(C)=CC(C)(C)N3` (stereo not drawn) [Example 306, 10-Methoxy-7-acetyl-5-(3-propenyl)-2,2,4-trimethyl-1H-2,5-dihydro-[1]benzopyrano[3,4-f]quinoline], the Ki in experiment [1] (setting [3]) was found to be 717 nM; in experiment [2], 4460 nM.
